Assay [1] addresses DNA polymerase β (Rattus norvegicus, UniProt P06766). Kind of assay: DNA polymerase assay, pol. β. The format is biochemical. Conditions: for Relative activity: Pol. β, Table III.
Assay [2] deals with T1, DNA polymerase α (Bos taurus, UniProt A0AAA9TD94).
T1 sequence (A0AAA9TD94 1-1441): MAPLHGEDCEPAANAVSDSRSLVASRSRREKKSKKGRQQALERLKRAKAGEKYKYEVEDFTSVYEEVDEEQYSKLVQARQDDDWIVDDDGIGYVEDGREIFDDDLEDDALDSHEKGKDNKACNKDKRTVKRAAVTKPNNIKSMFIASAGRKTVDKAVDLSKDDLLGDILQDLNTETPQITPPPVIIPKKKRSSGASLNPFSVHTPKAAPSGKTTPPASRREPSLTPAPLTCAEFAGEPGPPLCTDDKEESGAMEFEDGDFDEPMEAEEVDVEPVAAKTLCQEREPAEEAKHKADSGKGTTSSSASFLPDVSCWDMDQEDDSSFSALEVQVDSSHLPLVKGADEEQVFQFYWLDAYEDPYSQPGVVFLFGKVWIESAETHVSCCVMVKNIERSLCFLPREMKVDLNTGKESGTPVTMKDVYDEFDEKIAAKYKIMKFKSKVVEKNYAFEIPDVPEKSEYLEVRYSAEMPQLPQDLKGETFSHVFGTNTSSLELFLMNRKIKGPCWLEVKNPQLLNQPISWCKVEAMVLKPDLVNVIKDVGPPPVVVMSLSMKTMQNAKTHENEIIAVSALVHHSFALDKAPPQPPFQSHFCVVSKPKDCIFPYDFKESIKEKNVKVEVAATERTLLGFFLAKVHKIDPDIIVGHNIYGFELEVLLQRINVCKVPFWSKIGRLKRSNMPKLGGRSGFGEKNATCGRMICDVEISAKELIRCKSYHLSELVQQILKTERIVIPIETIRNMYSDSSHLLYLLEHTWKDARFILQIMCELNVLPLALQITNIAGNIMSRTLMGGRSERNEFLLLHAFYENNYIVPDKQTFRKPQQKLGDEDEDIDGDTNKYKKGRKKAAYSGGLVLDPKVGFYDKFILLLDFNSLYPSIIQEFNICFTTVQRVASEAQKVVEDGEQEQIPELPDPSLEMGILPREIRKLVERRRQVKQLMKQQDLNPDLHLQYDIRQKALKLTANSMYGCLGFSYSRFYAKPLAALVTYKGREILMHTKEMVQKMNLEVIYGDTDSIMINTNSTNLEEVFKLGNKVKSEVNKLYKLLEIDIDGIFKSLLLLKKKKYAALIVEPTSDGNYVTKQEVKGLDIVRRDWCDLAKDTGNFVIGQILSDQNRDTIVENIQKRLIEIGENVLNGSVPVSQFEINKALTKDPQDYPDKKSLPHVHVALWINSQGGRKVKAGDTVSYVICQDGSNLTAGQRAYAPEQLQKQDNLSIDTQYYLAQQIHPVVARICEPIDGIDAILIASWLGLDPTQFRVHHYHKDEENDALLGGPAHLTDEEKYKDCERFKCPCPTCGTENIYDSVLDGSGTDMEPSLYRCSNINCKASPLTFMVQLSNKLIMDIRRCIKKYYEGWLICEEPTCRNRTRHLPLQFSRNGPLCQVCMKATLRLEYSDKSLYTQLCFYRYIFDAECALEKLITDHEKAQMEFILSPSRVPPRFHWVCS
Kind of assay: DNA polymerase assay, pol. α. The format is biochemical, calf. The settings on record: for Relative activity: Pol. α, Table III.

In assay [3] the target is T2, T4 DNA polymerase (Enterobacteria phage T4, UniProt P04415).
T2 sequence (P04415 1-898): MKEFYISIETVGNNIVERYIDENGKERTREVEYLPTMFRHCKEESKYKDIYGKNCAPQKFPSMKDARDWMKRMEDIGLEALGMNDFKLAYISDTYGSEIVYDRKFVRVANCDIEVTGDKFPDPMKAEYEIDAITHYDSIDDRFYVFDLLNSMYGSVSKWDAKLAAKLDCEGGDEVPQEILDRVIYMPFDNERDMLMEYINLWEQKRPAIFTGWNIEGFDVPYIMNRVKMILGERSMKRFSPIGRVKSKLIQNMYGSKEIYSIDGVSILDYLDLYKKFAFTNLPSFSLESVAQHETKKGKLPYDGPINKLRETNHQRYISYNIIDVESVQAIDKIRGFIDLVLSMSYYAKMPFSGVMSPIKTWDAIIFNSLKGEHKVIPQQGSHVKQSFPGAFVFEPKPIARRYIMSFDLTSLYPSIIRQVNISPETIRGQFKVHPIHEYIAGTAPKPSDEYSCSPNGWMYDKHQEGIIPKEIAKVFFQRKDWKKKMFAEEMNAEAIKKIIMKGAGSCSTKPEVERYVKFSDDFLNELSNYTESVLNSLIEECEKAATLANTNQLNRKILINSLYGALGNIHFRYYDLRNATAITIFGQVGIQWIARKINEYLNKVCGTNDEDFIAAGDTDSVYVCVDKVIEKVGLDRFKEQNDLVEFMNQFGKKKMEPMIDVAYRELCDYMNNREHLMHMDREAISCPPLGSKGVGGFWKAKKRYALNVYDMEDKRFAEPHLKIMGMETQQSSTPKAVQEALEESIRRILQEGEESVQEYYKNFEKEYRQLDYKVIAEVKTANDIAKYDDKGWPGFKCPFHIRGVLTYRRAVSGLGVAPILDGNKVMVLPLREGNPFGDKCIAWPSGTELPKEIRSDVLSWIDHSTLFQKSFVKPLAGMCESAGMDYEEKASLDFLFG
As to the kind of experiment: T4 DNA polymerase activity assay. Conditions: 20 µM compound, 0.05 units enzyme; Fig. 3. The format is biochemical.

For assay [4], the target named is T4 polynucleotide kinase (Enterobacteria phage T4, UniProt P06855). The settings on record: 20 µM compound, 0.05 units enzyme; Fig. 3.
Sequence of T4 polynucleotide kinase (P06855 whole entry): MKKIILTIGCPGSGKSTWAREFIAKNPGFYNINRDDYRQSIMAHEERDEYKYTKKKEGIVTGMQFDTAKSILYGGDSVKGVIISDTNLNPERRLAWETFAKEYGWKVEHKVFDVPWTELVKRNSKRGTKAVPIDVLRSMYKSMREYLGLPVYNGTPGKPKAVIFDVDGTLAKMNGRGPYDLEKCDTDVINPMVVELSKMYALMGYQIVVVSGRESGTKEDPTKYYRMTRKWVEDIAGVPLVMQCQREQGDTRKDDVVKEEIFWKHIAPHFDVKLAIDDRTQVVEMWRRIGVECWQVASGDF
In assay [5] the target is E. coli DNA polymerase I (Escherichia coli, UniProt P00582). As to the kind of experiment: E. coli DNA polymerase I activity assay. It is filed as biochemical. Conditions: 20 µM compound, 0.05 units enzyme; Fig. 3.
Sequence of E. coli DNA polymerase I (P00582 whole entry): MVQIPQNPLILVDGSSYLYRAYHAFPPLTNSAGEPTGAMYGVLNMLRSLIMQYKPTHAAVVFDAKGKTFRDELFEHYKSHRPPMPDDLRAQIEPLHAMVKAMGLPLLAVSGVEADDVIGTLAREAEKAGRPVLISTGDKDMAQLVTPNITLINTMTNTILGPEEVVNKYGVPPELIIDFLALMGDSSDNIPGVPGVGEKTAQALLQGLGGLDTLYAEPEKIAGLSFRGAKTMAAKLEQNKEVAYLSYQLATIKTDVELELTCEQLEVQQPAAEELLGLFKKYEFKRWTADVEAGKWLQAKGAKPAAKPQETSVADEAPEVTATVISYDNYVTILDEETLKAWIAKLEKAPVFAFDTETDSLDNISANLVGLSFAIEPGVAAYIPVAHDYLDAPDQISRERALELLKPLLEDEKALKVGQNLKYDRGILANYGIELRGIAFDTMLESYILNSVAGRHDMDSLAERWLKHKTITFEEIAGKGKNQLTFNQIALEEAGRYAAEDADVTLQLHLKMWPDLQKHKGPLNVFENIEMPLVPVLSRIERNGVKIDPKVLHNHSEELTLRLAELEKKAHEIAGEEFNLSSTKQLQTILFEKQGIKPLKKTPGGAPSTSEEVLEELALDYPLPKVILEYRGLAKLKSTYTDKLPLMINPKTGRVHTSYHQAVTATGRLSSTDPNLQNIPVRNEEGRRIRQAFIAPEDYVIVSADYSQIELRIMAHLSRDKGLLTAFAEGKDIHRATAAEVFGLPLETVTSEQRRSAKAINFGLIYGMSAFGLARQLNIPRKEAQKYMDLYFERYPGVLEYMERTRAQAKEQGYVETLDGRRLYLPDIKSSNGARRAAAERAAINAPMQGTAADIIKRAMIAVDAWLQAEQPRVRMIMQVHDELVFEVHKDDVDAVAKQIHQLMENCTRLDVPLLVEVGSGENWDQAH
Assay [6] concerns the target HIV-1 reverse transcriptase (Human immunodeficiency virus type 1 group M subtype B, UniProt P03366). Kind of assay: HIV-1 reverse transcriptase activity assay. The format is biochemical. The settings on record: 20 µM compound, 0.05 units enzyme; Fig. 3.
Assay [7] deals with calf thymus TdT (Bos taurus, UniProt P06526). Kind of assay: TdT activity assay. The format is biochemical. The settings on record: 20 µM compound, 0.05 units enzyme; Fig. 3.
Sequence of calf thymus TdT (P06526 whole entry): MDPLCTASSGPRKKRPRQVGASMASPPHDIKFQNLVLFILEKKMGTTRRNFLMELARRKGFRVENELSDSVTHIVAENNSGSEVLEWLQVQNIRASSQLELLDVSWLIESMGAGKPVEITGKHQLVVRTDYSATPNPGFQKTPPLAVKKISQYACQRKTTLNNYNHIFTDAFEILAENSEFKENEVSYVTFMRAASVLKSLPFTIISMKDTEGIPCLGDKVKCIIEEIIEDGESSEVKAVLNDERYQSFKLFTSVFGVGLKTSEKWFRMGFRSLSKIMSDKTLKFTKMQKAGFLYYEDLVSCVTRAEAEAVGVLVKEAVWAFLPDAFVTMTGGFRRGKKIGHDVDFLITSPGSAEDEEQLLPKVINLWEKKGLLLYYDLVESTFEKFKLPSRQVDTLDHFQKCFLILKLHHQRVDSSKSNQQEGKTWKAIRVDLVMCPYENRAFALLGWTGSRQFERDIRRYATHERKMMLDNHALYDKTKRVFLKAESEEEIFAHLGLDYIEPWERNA
Assay [8] addresses T7 RNA polymerase (Escherichia phage T7, UniProt P00573). The settings on record: 20 µM compound, 0.05 units enzyme; Fig. 3.
Setting [9] is: Minimum inhibitory concentration: dose that resulted in inhibition of 80% or more of the activity, Table I.

We go through one compound from paper PMC5926251 (Japanese Journal of Cancer Research : Gann, 2000).

Several values for one entry are separate records, joined by “and”; a condition that tells them apart may be missing. Equal entries are not always repeated.

Sequence of T7 RNA polymerase (P00573 whole entry): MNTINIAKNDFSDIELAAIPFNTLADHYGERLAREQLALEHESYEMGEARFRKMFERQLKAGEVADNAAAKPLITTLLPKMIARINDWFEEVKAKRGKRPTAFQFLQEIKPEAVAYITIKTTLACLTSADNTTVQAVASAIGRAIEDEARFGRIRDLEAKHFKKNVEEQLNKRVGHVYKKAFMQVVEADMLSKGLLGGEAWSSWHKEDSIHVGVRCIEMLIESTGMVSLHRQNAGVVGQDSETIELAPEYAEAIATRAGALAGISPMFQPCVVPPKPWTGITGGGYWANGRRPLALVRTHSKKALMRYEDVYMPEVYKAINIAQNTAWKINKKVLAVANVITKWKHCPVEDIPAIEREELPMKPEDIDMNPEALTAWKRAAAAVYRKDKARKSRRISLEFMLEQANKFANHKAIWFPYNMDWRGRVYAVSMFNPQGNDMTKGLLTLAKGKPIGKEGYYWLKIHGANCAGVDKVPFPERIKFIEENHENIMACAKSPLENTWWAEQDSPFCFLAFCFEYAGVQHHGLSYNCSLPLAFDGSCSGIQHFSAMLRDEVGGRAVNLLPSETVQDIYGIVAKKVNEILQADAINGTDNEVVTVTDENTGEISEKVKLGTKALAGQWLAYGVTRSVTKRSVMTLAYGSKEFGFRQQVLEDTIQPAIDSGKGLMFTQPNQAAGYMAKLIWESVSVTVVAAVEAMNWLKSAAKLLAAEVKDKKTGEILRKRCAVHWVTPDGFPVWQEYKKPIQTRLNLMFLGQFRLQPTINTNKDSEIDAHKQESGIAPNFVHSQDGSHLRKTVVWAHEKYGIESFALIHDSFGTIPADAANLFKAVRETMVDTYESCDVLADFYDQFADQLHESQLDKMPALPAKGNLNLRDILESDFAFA

`CCCCCCCCCCCCCCCCCC(=O)OC[C@H](CO[C@H]1O[C@H](CS(=O)(=O)O)[C@@H](O)[C@H](O)[C@H]1O)OC(=O)CCCCCCCCCCCCCCCCC` [C18--SQDG]: in assay [1] (setting [9]), the MIC Pol. β is 60 µM and 62 µM. The Relative activity amounted to 59% in assay [1] (20 µM compound + 40 µM poly(rC)); 101% in assay [1] (20 µM compound + 0.05% NP-40); 63% in assay [1] (20 µM compound + 80 g/ml BSA); 65% in assay [1] (20 µM compound alone); 12% in assay [2] (2 µM compound + 40 µM poly(rC)); 15% in assay [2] (2 µM compound + 0.05% NP-40). Besides, the Relative activity amounted to 16% in assay [2] (2 µM compound + 80 g/ml BSA) and 10% in assay [2] (2 µM compound alone). Moreover, the IC50 in assay [1] (read-out: IC50 Pol. β, 50%-inhibitory concentration, Table I) is 37 µM and 43 µM; in assay [2] (read-out: IC50 Pol. α, 50%-inhibitory concentration, Table I) it was 400 nM. Further, the MIC Pol. α in assay [2] (setting [9]) is 1.1 µM and 1.2 µM. In addition, in assay [3], the “Effect on T4 DNA polymerase activity” value is reported as “hardly affected”. Also, the “Effect on T4 polynucleotide kinase activity” value in assay [4] is listed as “hardly affected”. The “Effect on E. coli DNA polymerase I activity” value in assay [5] was “hardly affected”. In addition, the “Effect on HIV-1 reverse transcriptase activity” value in assay [6] is reported as “moderate inhibitory effect”. Further, the “Effect on TdT activity” value in assay [7] is “inhibited”. Besides, in assay [8], the “Effect on T7 RNA polymerase activity” value is listed as “hardly affected”.

By IC50 is commonly meant the midpoint of a concentration-inhibition curve.
